Common to all, as to experiment: NCI tumour cell line growth inhibition, 48 h
In test [1] the test system is MDA-MB-435.
In test [2] the test system is U251 CNS.
Test [3] deals with OVCAR-3 ovarian.
The subject of test [4] is RXF 393 renal.
For test [5], the system named is K-562 leukemia.
For test [6], the system named is M14 melanoma.
In test [7] the test system is RPMI-8226 leukemia.
Test [8] deals with HT29 colon.
The test system of test [9] is MOLT-4 leukemia.
In test [10] the test system is MCF7 breast.

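1) Cells in 96-well plates. 2) Compound, 48 h, 5 concentrations. 3) Linear interpolation between surrounding doses. 4) Unreached endpoint = highest concentration. GI50: concentration for 50% inhibition of growth. TGI denotes the concentration required for complete inhibition of growth.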

In the case of `CCC(C)C1NC(=O)c2nc(oc2-c2ccccc2)-c2csc(n2)-c2csc(n2)-c2nc(oc2C)-c2coc(n2)CNC(=O)C(C(C)CC)NC1=O` (stereo not drawn), the GI50 in [1] was 46.4 nM; in [2] it was 12.6 nM; in test [3], 20.1 nM; in [4], 33.4 nM. Also, the TGI in test [1] turned out to be 163 nM; in test [2] it was 49.2 nM; in [3] it was 64.2 nM; in [4] it was 166 nM.
Take `C=C1C(=O)O[C@H]2[C@H]1CC/C(CNC(=O)c1c[nH]c3ccc(F)cc13)=C\CC[C@@]1(C)O[C@@H]21`: the GI50 is 856 nM in test [5]; 1770 nM in test [1]; 1040 nM in test [6]; 2680 nM in [2]; 1140 nM in test [7]; 1190 nM in test [8]. Besides, the GI50 in [9] is 1320 nM; in test [3] it was 486 nM; in test [4] it was 522 nM. In addition, the TGI in test [5] was determined as 6170 nM; in [1], 7410 nM; in [6] it was 2330 nM; in test [2], 7940 nM; in test [7], 3720 nM; in test [8] it was 2910 nM. In addition, the TGI in test [9] came to 4530 nM; in test [3], 1770 nM; in test [4], 1750 nM.
Turning to `C[C@@H]1CC[C@H]2C(COCC3=C(C(F)(F)F)O[C@@H]4O[C@@]5(C)CC[C@H]6[C@H](C)CC[C@@H]3[C@@]46OO5)=C(C(F)(F)F)O[C@@H]3O[C@@]4(C)CC[C@@H]1[C@]32OO4`, the GI50 in [5] was under 10 nM; in test [1] it was under 10.8 nM; in [10] it was under 10 nM; in test [2] it was under 10 nM; in [7], under 10 nM; in [8] it was under 10 nM. Besides, the values for the GI50 in test [9] and in test [3] were under 23.3 nM and 36.5 nM, respectively. Moreover, the TGI in [5], in test [1], in test [10], in [2], in test [7] and in [8] was over 100000 nM in each case. Besides, the TGI in test [9] and in [3] was over 100000 nM in each case.
On to `O=C(c1cccs1)c1c(C(F)(F)F)n([O-])c2ccccc2[n+]1=O`, for which the GI50 is 1640 nM in [5]; 1150 nM in test [1]; 771 nM in test [6]; 549 nM in [10]; 1070 nM in test [2]; 613 nM in test [7]. For the same compound, the GI50 was 1080 nM in [8], 2320 nM in [9] and 744 nM in test [3]. Moreover, the TGI worked out at 8770 nM in test [5]; 3500 nM in [1]; 1580 nM in [6]; 1950 nM in [10]; 2790 nM in test [2]; 10500 nM in test [7]. Moreover, the TGI in [8] turned out to be 4130 nM; in [9], 4190 nM; in [3], 1670 nM.
With `COc1c(C2CC(=O)Nc3c2cnn3Cc2ccco2)cc2c(c1OC)OCO2` (stereo not drawn), the GI50 was 434 nM in [5]; 408 nM in [6]; 367 nM in test [10]; 499 nM in test [2]; 396 nM in test [7]; 372 nM in test [8]. Also, the GI50 in test [9] is 615 nM; in test [3], 325 nM; in test [4], 350 nM. In addition, the TGI in [5] was over 100000 nM; in test [6], over 100000 nM; in test [10] it was over 100000 nM; in test [2], over 25800 nM; in [7] it was over 56500 nM; in test [8], over 100000 nM. The values for the TGI in [9], in test [3] and in test [4] were over 100000 nM, 1400 nM and over 19700 nM, respectively.
For the compound `Nc1n[nH]c2ccc([C@@H]3Nc4ccc5[nH]ncc5c4[C@H]4[C@H]5CCC(C5)[C@H]43)cc12`, the GI50 is 264 nM in test [5]; 293 nM in [6]; 363 nM in [10]; 435 nM in [2]; 338 nM in test [7]; 350 nM in test [8]. Also, the GI50 in [9] is 407 nM; in [3] it was 230 nM. The TGI in [5] is over 100000 nM; in test [6], over 40700 nM; in [10], over 100000 nM; in test [2] it was over 100000 nM; in [7], 2370 nM; in test [8], over 36800 nM. Besides, the TGI in test [9] is over 51300 nM; in test [3], 640 nM.
`CC(=O)c1ccc(Nc2cc(-c3ccccc3)nc3c(O)cccc23)cc1`: the GI50 is 4730 nM in [5]; 23600 nM in [1]; 4580 nM in [6]; 9440 nM in test [2]; 8800 nM in test [7]; 20700 nM in test [8]. Also, the GI50 is over 100000 nM in test [3] and 17400 nM in [4]. For the same compound, the TGI in [5] is over 100000 nM; in test [1], 65300 nM; in test [6] it was 33900 nM; in test [2] it was over 100000 nM; in test [7], 46800 nM; in test [8] it was 43000 nM. Besides, the values for the TGI in [3] and in [4] were over 100000 nM and 60300 nM, respectively.
For `COC(=O)C1OC(O[C@H]2CCC3(C)C(CCC4(C)C3CC=C3C5CC(C)(C)CCC5(C(=O)O)CC[C@]34C)C2(C)C)C(O)C(OC2OC(CO)C(O)C(O)C2O)C1O` (stereo partly drawn), the GI50 in test [5] was 8170 nM; in test [1] it was 13300 nM; in test [6], 6220 nM; in [10] it was 9920 nM; in test [2], 6080 nM; in [8], 12400 nM. Besides, the GI50 in [9] was 2170 nM; in test [3], 13900 nM; in test [4], 11300 nM. In addition, the TGI is 26600 nM in test [5]; over 33300 nM in test [1]; 11500 nM in test [6]; 26400 nM in test [10]; 10900 nM in test [2]; over 33300 nM in [8]. In addition, the results for the TGI in test [9], in test [3] and in test [4] were 13400 nM, over 33300 nM and over 33300 nM, respectively.

The record behind these values is PubChem BioAssay (NCI).
